Laboratory results: patent US5158950A, “1,3-dithiol-2-ylidene derivatives and process for the preparation thereof” (Yuhan Corporation, Ltd., priority 1987, dated 1992)

Key:
[1] = tested on: serum ALT activity induced by CCl4; assay: Protective effect against acute hepatic damage induced by carbon tetrachloride (serum ALT); format: in vivo; settings: Mus musculus; mice, 50 mg/kg oral, 6 h before CCl4 (50 ul/kg oral); ALT 24 h after CCl4; read-out: Inhibitory (%): protective effect against increase of serum ALT activity induced by CCl4
Method: Principle; Carbon tetrachloride (CCl4) is a well-known hepatotoxic agent, thus widely used to produce experimental animal models for screening the potential drugs acting upon hepatic diseases. In this experiment test compounds were administered to mice prior to treatment with CCl4. 24 Hours after the CCl4 treatment, the animals were sacrificed and serum alanine aminotransferase (ALT) levels were determined. The hepatoprotective effect of a test compound was evaluated by the suppressive action against the increase of serum ALT induced by CCl4.
Method; The experimental animals were divided into normal, CCl4 treated and test compound treated groups. Each group consisted of 8 mice with body weight of 20-25 grams. The test compounds were suspended in 0.2% sodium carboxy methyl cellulose (CMC-Na) solution and administered orally at the dose of 50 mg/125 ml/kg body weight. Only the vehicle, 0.2% CMC-Na solution, was administered to the normal and to the CCl4 treated group instead of the test compound suspension. 6 Hours after the drug administration, the CCl4 solution in olive oil was administered orally to the CCl4 treated- and the test compound treated group at the dose of 50 ul/25 ml olive oil/kg body weight. The normal group was administered olive oil only at the same dose. 24 Hours after the CCl4 administration, blood samples were collected from the orbital sinus of the animals and the sera were obtained by centrifugation The serum ALT activities were monitored using an automatic blood analyzer (Gilford, SBA 300). The hepatoprotective effect of the test compounds was expressed by the suppressive percentage against the increase of serum ALT level induced by CCl4 calculated by the following formula; [formula]

[2] = Acute oral toxicity, median lethal dose (LD50); settings: mouse, in vivo, male ICR mice, deaths counted for 14 days
Method: Each test compound was suspended in a 0.2% CMC-Na solution in various concentrations to make test suspension. The test suspensions were administered orally to male ICR mice (10 in each group) at various doses. The number of dead mice was counted for 14 days and the value of mediam lethal dose (LD50, g/kg) was calculated by the Hitchifield-Wilcoxon method.

Row | Structure (SMILES) | inhibition in vivo at 50 mg/kg [1] [%] | LD50 at 336 h [2] [mg/kg]
1 | CC(C)OC(=O)C(C(=O)Nc1ccccc1C(=O)O)=C1SC=CS1 [25(a), Isopropyl 2-(1,3-dithiol-2-ylidene)-2-[N-(2-carboxyphenyl)carbamoyl]acetate] | 74 | 1200
2 | COc1cccc(NC(=O)C(C(=O)OC(C)C)=C2SC=CS2)c1 [Example 17(o), isopropyl 2-(1,3-dithiol-2-ylidene)-2-[N-(3-methoxyphenyl)carbamoyl]acetate] | 100 | 
3 | Cc1ccc(NC(=O)C(C(=O)OC(C)C)=C2SC=CS2)cc1 [17(e), Isopropyl 2-(1,3-dithiol-2-ylidene)-2-[N-(4-methylphenyl)carbamoyl]acetate] | 100 | 
4 | CC(C)OC(=O)C(C(=O)Nc1ccccc1O)=C1SC=CS1 [22(d), Isopropyl 2-(1,3-dithiol-2-ylidene)-2-[N-(2-hydroxyphenyl)carbamoyl]acetate] | 16.2 | 
5 | CC(C)OC(=O)C(C(=O)N1CCN(C)CC1)=C1SC=CS1 [26(b), Isopropyl 2-(1,3-dithiol-2-ylidene)-2-[(4-methylpiperazin-1-yl)carbonyl]acetate] | 46 | 
6 | Cc1nc(NC(=O)C(C(=O)OC(C)C)=C2SC=CS2)sc1C [19(f), Isopropyl 2-(1,3-dithiol-2-ylidene)-2-[N-(4,5-dimethyl-2-thiazolyl)carbamoyl]acetate] | 91.4 | > 5000
7 | CC(=O)Oc1cccc(NC(=O)C(C(=O)OC(C)C)=C2SC=CS2)c1 [24(b)] | 98 | > 5000
8 | CC(C)OC(=O)C(C(=O)Nc1cccc(Cl)c1)=C1SC=CS1 [17(h), Isopropyl 2-(1,3-dithiol-2-ylidene)-2-[N-(3-chlorophenyl)carbamoyl]acetate] | 97.5 | > 5000
9 | CC(C)OC(=O)C(C(=O)NC1CCCCC1)=C1SC=CS1 [Example 12, Isopropyl 2-(1,3-dithiol-2-ylidene)-2-(N-cyclohexylcarbamoyl)acetate] | 98 | 
10 | CC(C)OC(=O)C(C(=O)Nc1ncccn1)=C1SC=CS1 [21(d), Isopropyl 2-1,3-dithiol-2-ylidene)-2-(N-pyrimidin-2-ylcarbamoyl) acetate] | 99.8 | 3200
11 | CC(C)NC(=O)C(C(=O)OC(C)C)=C1SC=CS1 [Example 11, Isopropyl 2-(1,3-dithiol-2-ylidene)-2-(N-isopropylcarbamoyl)acetate] | 49.4 | 2600
12 | CC(C)OC(=O)C(C(=O)N1CCCC1)=C1SC=CS1 [26(c), Isopropyl 2-(1,3-dithiol-2-ylidene)-2-(1-pryrrolidinylcarbaonyl) acetate] | 90.5 | 
13 | CC(C)OC(=O)C(C(=O)N1CCCC1C(=O)O)=C1SC=CS1 (stereo not shown) [Example 15, Isopropyl 2-(1,3-dithiol-2-ylidene)-2-[(2-carboxypyrrolidin-1-yl)carbonyl]acetate] | 14 | 
14 | CC(C)OC(=O)C(C(=O)Nc1cccc(C(F)(F)F)c1)=C1SC=CS1 [17(t), Isopropyl 2-(1,3-dithiol-2-ylidene)-2-[N-(3-trifluoromethylphenyl)carbamoyl]acetate] | 96 | 
15 | Cc1cccc(NC(=O)C(C(=O)OC(C)C)=C2SC=CS2)c1C [17(f), Isopropyl 2-(1,3-dithiol-2-ylidene)-2-[N-(2,3-dimethylphenyl)carbamoyl]acetate] | 92 | 
16 | CC(=O)Nc1cccc(NC(=O)C(C(=O)OC(C)C)=C2SC=CS2)c1 [17(r), Isopropyl 2-(1,3-dithiol-2-ylidene)-2-[N-(3-acetamidophenyl)carbamoyl]acetate] | 46.6 | 
17 | CC(=O)Nc1ccc(NC(=O)C(C(=O)OC(C)C)=C2SC=CS2)cc1 [17(q), Isopropyl 2-(1,3-dithiol-2-ylidene)-2-[N-(4-acetamidophenyl)carbamoyl]acetate] | 78.2 | > 5000

Row | Structure (SMILES) | inhibition in vivo at 50 mg/kg [1] [%] | LD50 at 336 h [2] [mg/kg]
18 | CCN(CC)C(=O)C(C(=O)OC(C)C)=C1SC=CS1 [Example 13, Isopropyl 2-(1,3-dithiol-2-ylidene)-2-(N,N-diethylcarbamoyl) acetate] | 55.6 | 
19 | CC(C)OC(=O)C(C(=O)N(C)c1ccccc1)=C1SC=CS1 [Example 16, Isopropyl 2-(1,3-dithiol-2-ylidene)-2-(N-methyl-N-phenylcarbamoyl)acetate] | 47.9 | 
20 | CC(C)OC(=O)C(C(=O)NC1=NCCS1)=C1SC=CS1 [22(e), Isopropyl 2-(1,3-dithiol-2-ylidene)-2-[N-(2-thiazolin-2-yl)carbamoyl]acetate] | 99.4 | > 5000
21 | COc1ccc(NC(=O)C(C(=O)OC(C)C)=C2SC=CS2)cc1 [17(l), Isopropyl 2-(1,3-dithiol-2-ylidene)-2-[N-(4-methoxyphenyl)carbamoyl]acetate] | 99.6 | > 5000
22 | CC(C)OC(=O)C(C(=O)Nc1ccccc1F)=C1SC=CS1 [17(j), Isopropyl 2-(1,3-dithiol-2-ylidene)-2-[N-(2-fluorophenyl)carbamoyl]acetate] |  | > 5000
23 | CC(C)OC(=O)C(C(=O)Nc1ccnc(O)n1)=C1SC=CS1 [18(m)] | 12.8 | > 5000
24 | CC(C)OC(=O)C(C(=O)N1CCOCC1)=C1SC=CS1 [26(a), Isopropyl 2-(1,3-dithiol-2-ylidene)-2-(4-morpholinylcarbonyl)acetate] | 66.5 | 
25 | CC(C)OC(=O)C(C(=O)n1ccnc1)=C1SC=CS1 [26(d), Isopropyl 2-(1,3-dithiol-2-ylidene)-2-(1-imidazolylcarbaony)acetate] | 98 | 
26 | CC(C)OC(=O)C(C(=O)Nc1ccc(F)cc1)=C1SC=CS1 [17(i), Isopropyl 2-(1,3-dithiol-2-ylidene)-2-[N-(4-fluorophenyl)carbamoyl]acetate] | 89.8 | > 5000
27 | CC(C)OC(=O)C(C(=O)Nc1nc2ccccc2s1)=C1SC=CS1 [18(n), Isopropyl 2-(1,3-dithiol-2-ylidene)-2-[N-(2-benzothiazolyl)carbamoyl]acetate] | 15.2 | > 5000
28 | CNC(=O)C(C(=O)OC(C)C)=C1SC=CS1 [Example 10, Isopropyl 2-(1,3-dithiol-2-ylidene)-2-(N-methylcarbamoyl) acetate] | 92 | 
29 | CC(C)OC(=O)C(C(=O)Nc1ccc(C(F)(F)F)cc1)=C1SC=CS1 [17(s), Isopropyl 2-(1,3-dithiol-2-ylidene)-2-[N-(4-trifluoromethylphenyl)carbamoyl]acetate] | 100 | > 4000
30 | CC(=O)Oc1ccc(NC(=O)C(C(=O)OC(C)C)=C2SC=CS2)cc1 [24(a), Isopropyl 2-(1,3-dithiol-2-ylidene)-2-[N-(4-acetoxyphenyl)carbamoyl]acetate] | 102 | 
31 | CC(C)OC(=O)C(C(=O)Nc1cccc(O)c1)=C1SC=CS1 [22(c), Isopropyl 2-(1,3-dithiol-2-ylidene)-2-[N-(3-hydroxyphenyl)carbamoyl]acetate] | 93 | > 5000
32 | CC(C)OC(=O)C(C(=O)Nc1ccc(Cl)cc1)=C1SC=CS1 [17(g), Isopropyl 2-(1,3-dithiol-2-ylidene)-2-[N-(4-chlorophenyl)carbamoyl]acetate] | 81.5 | > 5000
33 | CC(C)OC(=O)C(C(N)=O)=C1SC=CS1 [Example 9, Isopropyl 2-(1,3-dithiol-2-ylidene)-2-carbamoylacetate] | 65.5 | 
34 | CC(=O)Oc1ccccc1NC(=O)C(C(=O)OC(C)C)=C1SC=CS1 [24(c), Isopropyl 2-(1,3-dithiol-2ylidene)-2-[N-(2-acetoxyphenyl)carbamoyl]acetate] | 22.8 | 
